In data set [1] the target is Voltage-gated inwardly rectifying potassium channel KCNH2 (Homo sapiens, UniProt Q12809). As to the kind of experiment: Displacement of [3H]bufuralol from hERG channel expressed in HEK293 cells.
Data set [2] has as its target Glutamate receptor ionotropic, NMDA 2B (Rattus norvegicus, UniProt P35439+Q00960). Description: Displacement of [3H]racemic CP-101606 from rat NR2B receptor in P2 membrane. It counts as cell membranes. For orientation: Displacement assays read how much labelled ligand stays bound in the presence of the test substance.
For a further data set, the system named is Rattus norvegicus. Description: Effect on haloperidol catalepsy in po dosed rat assessed as latency to paw withdrawal. It counts as functional. Conditions: read-out: MED.
Data set [3] in a line: Ratio of Half life of compound in human liver microsome HHM0168 to half life in human liver microsome HHM0168 in presence of CYP2D6. Type of data set: ADME. Conditions: microsomes.
Another data set has as its target Cytochrome P450 2D6 (Homo sapiens, UniProt P10635). Description: Displacement of [3H]bufuralol from CYP2D6. It counts as ADME.
A further data set concerns the target hERG (KCNH2) (Homo sapiens, UniProt Q12809). As to the kind of experiment: Blockade of hERG channel expressed in HEK293 cells by electrophysiological method. It counts as cell-based. Conditions: HEK293 cells expressing hERG channel.

Where only a bound is given, the exact number is not on record here.

Chain of Cytochrome P450 2D6 (P10635 whole entry): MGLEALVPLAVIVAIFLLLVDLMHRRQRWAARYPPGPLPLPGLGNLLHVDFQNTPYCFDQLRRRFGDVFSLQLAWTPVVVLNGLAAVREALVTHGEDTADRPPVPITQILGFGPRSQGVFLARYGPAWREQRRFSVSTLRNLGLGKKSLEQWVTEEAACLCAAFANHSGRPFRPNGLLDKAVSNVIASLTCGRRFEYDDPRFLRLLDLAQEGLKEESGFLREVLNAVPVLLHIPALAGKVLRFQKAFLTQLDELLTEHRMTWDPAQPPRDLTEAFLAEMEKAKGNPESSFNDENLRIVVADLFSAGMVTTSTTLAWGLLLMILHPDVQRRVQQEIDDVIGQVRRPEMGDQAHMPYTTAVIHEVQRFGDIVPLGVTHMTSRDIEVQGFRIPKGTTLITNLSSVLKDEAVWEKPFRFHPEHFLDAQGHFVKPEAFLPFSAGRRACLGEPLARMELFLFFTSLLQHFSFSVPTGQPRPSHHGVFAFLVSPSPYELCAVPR
Chain of Voltage-gated inwardly rectifying potassium channel KCNH2 (Q12809 whole entry): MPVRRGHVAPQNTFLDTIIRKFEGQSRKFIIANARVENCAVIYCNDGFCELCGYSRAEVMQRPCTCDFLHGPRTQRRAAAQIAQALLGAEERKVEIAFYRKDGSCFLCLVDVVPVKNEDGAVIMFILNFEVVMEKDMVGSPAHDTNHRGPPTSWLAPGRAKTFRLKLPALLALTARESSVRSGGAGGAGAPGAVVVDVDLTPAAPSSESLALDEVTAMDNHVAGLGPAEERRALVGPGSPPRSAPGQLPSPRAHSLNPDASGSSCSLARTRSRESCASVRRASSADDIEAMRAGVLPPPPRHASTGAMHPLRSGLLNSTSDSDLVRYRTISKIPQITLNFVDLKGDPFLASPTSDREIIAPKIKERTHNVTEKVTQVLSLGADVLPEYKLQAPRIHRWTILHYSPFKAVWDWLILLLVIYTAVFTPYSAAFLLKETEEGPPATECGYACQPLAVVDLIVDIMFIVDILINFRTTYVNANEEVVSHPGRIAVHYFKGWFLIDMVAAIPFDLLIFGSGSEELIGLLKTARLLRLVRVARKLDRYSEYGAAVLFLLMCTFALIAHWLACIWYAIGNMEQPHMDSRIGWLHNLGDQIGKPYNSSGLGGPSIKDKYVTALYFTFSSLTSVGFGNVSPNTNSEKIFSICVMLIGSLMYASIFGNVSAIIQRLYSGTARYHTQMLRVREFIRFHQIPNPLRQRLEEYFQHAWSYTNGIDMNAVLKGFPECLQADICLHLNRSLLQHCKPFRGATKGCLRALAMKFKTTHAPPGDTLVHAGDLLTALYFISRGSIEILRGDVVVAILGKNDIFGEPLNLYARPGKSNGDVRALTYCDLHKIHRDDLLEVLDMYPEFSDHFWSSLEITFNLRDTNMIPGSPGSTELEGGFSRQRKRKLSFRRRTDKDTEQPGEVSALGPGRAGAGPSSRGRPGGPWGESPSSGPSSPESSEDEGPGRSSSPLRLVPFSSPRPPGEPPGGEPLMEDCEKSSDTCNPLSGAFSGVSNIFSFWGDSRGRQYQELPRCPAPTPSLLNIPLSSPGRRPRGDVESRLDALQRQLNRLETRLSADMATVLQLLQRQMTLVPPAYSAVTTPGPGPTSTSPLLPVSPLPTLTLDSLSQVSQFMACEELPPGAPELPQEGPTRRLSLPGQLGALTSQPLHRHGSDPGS
Chain of Glutamate receptor ionotropic, NMDA 2B (Q00960 whole entry, one chain of several): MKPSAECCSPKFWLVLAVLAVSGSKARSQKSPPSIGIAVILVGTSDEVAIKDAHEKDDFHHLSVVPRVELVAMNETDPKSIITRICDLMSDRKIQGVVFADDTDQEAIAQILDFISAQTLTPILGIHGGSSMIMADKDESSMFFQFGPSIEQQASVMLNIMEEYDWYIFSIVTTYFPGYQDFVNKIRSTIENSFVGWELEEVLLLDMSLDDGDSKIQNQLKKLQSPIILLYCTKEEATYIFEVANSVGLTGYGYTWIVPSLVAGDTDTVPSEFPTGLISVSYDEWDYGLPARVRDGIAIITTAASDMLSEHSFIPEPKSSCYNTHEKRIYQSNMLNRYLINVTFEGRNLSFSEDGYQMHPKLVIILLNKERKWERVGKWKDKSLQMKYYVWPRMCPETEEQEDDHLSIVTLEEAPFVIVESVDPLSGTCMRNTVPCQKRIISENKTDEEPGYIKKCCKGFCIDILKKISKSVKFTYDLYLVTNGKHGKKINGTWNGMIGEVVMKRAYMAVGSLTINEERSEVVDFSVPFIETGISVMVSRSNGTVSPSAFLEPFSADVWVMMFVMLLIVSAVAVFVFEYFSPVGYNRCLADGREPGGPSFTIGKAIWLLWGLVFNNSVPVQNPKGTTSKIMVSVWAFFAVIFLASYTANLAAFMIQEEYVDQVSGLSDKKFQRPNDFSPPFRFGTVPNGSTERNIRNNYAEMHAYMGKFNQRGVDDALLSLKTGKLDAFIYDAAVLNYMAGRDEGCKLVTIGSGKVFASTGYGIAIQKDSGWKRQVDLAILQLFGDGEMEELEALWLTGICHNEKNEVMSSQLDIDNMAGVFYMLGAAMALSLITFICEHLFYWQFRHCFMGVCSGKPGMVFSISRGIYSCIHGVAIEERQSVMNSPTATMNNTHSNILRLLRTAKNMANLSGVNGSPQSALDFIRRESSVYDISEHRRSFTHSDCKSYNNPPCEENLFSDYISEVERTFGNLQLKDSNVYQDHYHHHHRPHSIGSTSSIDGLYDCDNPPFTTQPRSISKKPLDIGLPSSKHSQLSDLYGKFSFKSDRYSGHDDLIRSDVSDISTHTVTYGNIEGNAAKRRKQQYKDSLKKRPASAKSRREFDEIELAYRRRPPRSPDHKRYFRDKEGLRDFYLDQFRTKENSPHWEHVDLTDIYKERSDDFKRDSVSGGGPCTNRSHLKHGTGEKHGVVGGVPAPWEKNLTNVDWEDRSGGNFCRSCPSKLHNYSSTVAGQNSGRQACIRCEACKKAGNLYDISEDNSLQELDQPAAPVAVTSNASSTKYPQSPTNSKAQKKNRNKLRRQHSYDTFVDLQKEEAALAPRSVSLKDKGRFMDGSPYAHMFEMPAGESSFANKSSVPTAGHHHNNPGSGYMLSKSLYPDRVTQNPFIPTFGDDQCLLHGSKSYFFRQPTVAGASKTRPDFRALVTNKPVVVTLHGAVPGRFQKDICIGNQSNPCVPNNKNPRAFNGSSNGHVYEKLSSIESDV
Chain of hERG (KCNH2) (Q12809 whole entry): as the sequence (Q12809 whole entry) above

For `CC(C(O)c1ccc2c(c1)CCC(=O)N2)N1CCC(O)(c2ccc3c(c2)COCC3)CC1` (racemic), the results for the IC50 in data set [1] and in data set [2] were 16000 nM and 15 nM, respectively. In the data set on Rattus norvegicus, the minimal effective dose is greater than 30 mg/kg.
For `Cc1cc(O)ccc1C(O)C(C)N1CCC(O)(c2ccc(F)cc2)CC1` (racemic), the Ratio in data set [3] is greater than 4.5. Further, the concentration for half-maximal inhibition (IC50) – broadly, the concentration that inhibits the measured activity by half – at Cytochrome P450 2D6 amounted to 3900 nM; in data set [2], 16 nM.
Take `Cc1cc(C(O)C(C)N2CCC(O)(c3ccc(F)cc3)CC2)ccc1O` (racemic): at Cytochrome P450 2D6, the IC50 is less than 300 nM.
As for `CC(C(O)c1ccc(O)c(Cl)c1)N1CCC(O)(c2ccc(F)cc2)CC1` (racemic), in data set [3], the Ratio came to 1.6. Moreover, the IC50 at Cytochrome P450 2D6 is 3500 nM; in data set [2], 5.6 nM.
Regarding `CC(C(O)c1ccc2c(c1)CNC(=O)N2)N1CCC(O)(c2ccc(F)cc2)CC1` (racemic), in data set [3], the Ratio was 1. Moreover, the IC50 on Cytochrome P450 2D6 is greater than 30000 nM; in data set [1], 7400 nM; in data set [2], 9.1 nM.
In data set [2], `COc1cccc(C2(O)CCN(C(C)C(O)c3ccc4c(c3)CCC(=O)N4)CC2)c1` (racemic) came in with an IC50 of 8.3 nM. In addition, the minimal effective dose with Rattus norvegicus was found to be 30 mg/kg.
In data set [2], `CC(C(O)c1ccc2c(c1)CCC(=O)N2)N1CCC(O)(c2cccc(COc3ccccc3)c2)CC1` (racemic) yielded an IC50 of 6.3 nM.
In the case of `CC(C(O)c1ccc2c(c1)CCC(=O)N2)N1CCC(O)(c2cccc(F)c2)CC1` (racemic), the IC50 in data set [2] came out at 10 nM. Moreover, the minimal effective dose in the data set on Rattus norvegicus came out at 10 mg/kg.
Turning to `CC(C(O)c1ccc2c(c1)OCC(=O)N2)N1CCC(O)(c2ccc(F)cc2)CC1` (racemic), the Ratio in data set [3] stood at 1. The values for the IC50 (on Cytochrome P450 2D6; in data set [1]; in data set [2]) were greater than 30000 nM, 1600 nM and 8.7 nM, respectively.
In the case of `O=C1CCc2cc(C(O)CN3CCC(O)(c4cccc(F)c4)CC3)ccc2N1` (single isomer, unassigned; (-)), the figures for the half-inhibitory concentration (IC50) in data set [1] and in data set [2] were 21000 nM and 5 nM, respectively. Moreover, the IC20 (as a rule, the concentration at which the effect reaches the 20% level) at hERG (KCNH2) was 1100 nM.
Compound `Cc1ccc(C2(O)CCN(C(C)C(O)c3ccc4c(c3)CCC(=O)N4)CC2)cc1` (racemic) yielded an IC50 in data set [2] of 9.1 nM.
For the compound `CC(C(O)c1ccc2[nH]c(=O)oc2c1)N1CCC(O)(c2ccc(F)cc2)CC1` (racemic), the Ratio in data set [3] amounted to 1. The values for the half-inhibitory concentration (IC50) (at Cytochrome P450 2D6; in data set [1]; in data set [2]) were 11000 nM, 2600 nM and 41 nM, respectively.
For the compound `CC(C(O)c1ccc2c(c1)CCC(=O)N2)N1CCC(O)(c2ccc(F)cc2)CC1` (racemic), the IC50 was greater than 30000 nM at Cytochrome P450 2D6 and 11 nM in data set [2].
In data set [1], `C[C@@H]([C@@H](O)c1ccc(O)cc1)N1CCC(O)(c2ccccc2)CC1` [TRAXOPRODIL] registered an IC50 of 10000 nM. The compound further showed an IC20 against hERG (KCNH2) of 150 nM.
For `CC(C(O)c1ccc(O)c(-c2ccccc2)c1)N1CCC(O)(c2ccc(F)cc2)CC1` (racemic), the figures for the IC50 (at Cytochrome P450 2D6; in data set [2]) were 8400 nM and 570 nM, respectively.
`CC(C(O)c1ccc2c(c1)CCC(=O)N2)N1CCC(O)(c2ccc(Cl)cc2)CC1` (racemic) returned an IC50 in data set [2] of 6.6 nM. Moreover, the minimal effective dose with Rattus norvegicus came out at 10 mg/kg.
For `O=C1CCc2cc(C(O)CN3CCC(O)(c4cccc(F)c4)CC3)ccc2N1` (racemic), the IC50 is 13000 nM in data set [1] and 4.5 nM in data set [2].
As for `CC(C(O)c1ccc2c(c1)CN(C)C(=O)N2)N1CCC(O)(c2ccc(F)cc2)CC1` (racemic), the Ratio in data set [3] is 1. The IC50 on Cytochrome P450 2D6 is greater than 30000 nM; in data set [1] it was 3100 nM; in data set [2], 14 nM.
In the case of `CC(C(O)c1ccc(O)c(C(C)(C)C)c1)N1CCC(O)(c2ccc(F)cc2)CC1` (racemic), the IC50 in data set [2] was greater than 5000 nM.
As for `O=C1CCc2cc(C(O)CN3CCC(O)(c4cccc(F)c4)CC3)ccc2N1` (single isomer, unassigned; (+)), the values for the IC50 in data set [1] and in data set [2] were 9800 nM and 6.8 nM, respectively.
Take `CC(C(O)c1ccc2c(c1)COC(=O)N2)N1CCC(O)(c2ccc(F)cc2)CC1` (racemic): the Ratio in data set [3] worked out at 1. Besides, the results for the IC50 (on Cytochrome P450 2D6; in data set [1]; in data set [2]) were greater than 30000 nM, 2400 nM and 18 nM, respectively.

For the origin of these results see ChEMBL document CHEMBL1139807, “Discovery of (-)-6-[2-[4-(3-fluorophenyl)-4-hydroxy-1-piperidinyl]-1-hydroxyethyl]-3,4-dihydro-2(1H)-quinolinone--a potent NR2B-selective N-methyl D-aspartate (NMDA) antagonist for the treatment of pain” (Bioorg Med Chem Lett, 2007).
